Earlier results, collected in US20060173179A1, “Azabenzoxazoles for the treatment of CNS disorders” (Pfizer Inc, priority 2004, published 2006).

Assays:
[1] = not given; remark: listed apart in the source

O=C1Cc2cc(CCN3CCN(c4nsc5ccccc45)CC3)c(Cl)cc2N1 [Ziprasidone, 5-[2-[4-(1,2-benzisothiazol-3-yl)piperazin-1-yl]ethyl]-6-chloroindolin-2-one]
half-life (in vivo): 6 to 7 h
Oral bioavailability (taken with food): approximately 60%
protein binding [1]: extensive
